Key:
foxtail, giant [1] = assay: Test A preemergence; type: in vivo, Setaria faberi
Summary of the method: (§1)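 Visual injury ratings on a 0–100 scale (100 = complete control) versus untreated controls, taken 10 days after treatment in greenhouse. Preemergence: directed soil spray onto seeded loam/sand. Postemergence: foliar application at one- to two-leaf stage, plants 2–10 cm. Formulation: non-phytotoxic solvent plus surfactant.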

pigweed, palmer [2] = assay: Test A preemergence; type: in vivo, Amaranthus palmeri
Summary of the method: as §1

barnyardgrass [3] = assay: Test A preemergence; type: in vivo, Echinochloa crusgalli
From the text: (§2) Seeds of plant species selected from barnyardgrass (Echinochloa crusgalli), blackgrass (Alopecurus myosuroides), corn (Zea mays), foxtail, giant (giant foxtail, Setaria faberi), goosegrass (Eleusine indica), kochia (Bassia scoparia), oat, wild (wild oat, Avena fatua), pigweed, palmer (palmer amaranth, palmer pigweed, Amaranthus palmeri), Pigweed, Redroot (redroot pigweed, Amaranthus retroflexus), ragweed (common ragweed, Ambrosia artemisiifolia), ryegrass, Italian (italian ryegrass, Lolium multiflorum), soybean (Glycine max), and wheat (Triticum aestivum) were planted into a blend of loam soil and sand and treated preemergence with a directed soil spray using test chemicals formulated in a non-phytotoxic solvent mixture which included a surfactant. At the same time, plants selected from these crops and weed species and also galium (catchweed bedstraw, Galium aparine) and horseweed (Erigeron canadensis) were planted in pots containing the same blend of loam soil and sand and treated with postemergence applications of test chemicals formulated in the same manner. Plants ranged in height from 2 to 10 cm and were in the one- to two-leaf stage for the postemergence treatment. Treated plants and untreated controls were maintained in a greenhouse for 10 days, after which time all treated plants were compared to untreated controls and visually evaluated for injury. Plant response ratings, summarized in Table A, are based on a 0 to 100 scale where 0 is no effect and 100 is complete control. A dash (-) response means no test result.

horseweed = assay: Test A postemergence; type: in vivo, Erigeron canadensis
Summary of the method: as §1

barnyardgrass [4] = assay: Test A postemergence; type: in vivo, Echinochloa crusgalli
From the text: as §2

galium = assay: Test A postemergence; type: in vivo, Galium aparine
Summary of the method: as §1

foxtail, giant [5] = assay: Test A postemergence; type: in vivo, Setaria faberi
Summary of the method: as §1

kochia [6] = assay: Test A postemergence; type: in vivo, Bassia scoparia
Summary of the method: as §1

ragweed [7] = assay: Test A postemergence; type: in vivo, Ambrosia artemisiifolia
Summary of the method: as §1

blackgrass [8] = assay: Test A postemergence; type: in vivo, Alopecurus myosuroides
Summary of the method: as §1

blackgrass [9] = assay: Test A preemergence; type: in vivo, Alopecurus myosuroides
Summary of the method: as §1

ragweed [10] = assay: Test A preemergence; type: in vivo, Ambrosia artemisiifolia
Summary of the method: as §1

pigweed, palmer [11] = assay: Test A postemergence; type: in vivo, Amaranthus palmeri
Summary of the method: as §1

ryegrass, Italian [12] = assay: Test A postemergence; type: in vivo, Lolium multiflorum
Summary of the method: as §1

ryegrass, Italian [13] = assay: Test A preemergence; type: in vivo, Lolium multiflorum
Summary of the method: as §1

kochia [14] = assay: Test A preemergence; type: in vivo, Bassia scoparia
Summary of the method: as §1

wheat [15] = assay: Test A postemergence; type: in vivo, Triticum aestivum; conditions: postemergence, 10 days
Summary of the method: as §1

oat, wild [16] = assay: Test A preemergence; type: in vivo, Avena fatua; conditions: visual injury after 10 days, 0 to 100 scale, 0 is no effect, 100 is complete control
Summary of the method: as §1

corn [17] = assay: Test A postemergence; type: in vivo, Zea mays; conditions: postemergence, 10 days
Summary of the method: as §1

oat, wild [18] = assay: Test A postemergence; type: in vivo, Avena fatua; conditions: postemergence, 10 days
Summary of the method: as §1

wheat [19] = assay: Test A preemergence; type: in vivo, Triticum aestivum; conditions: visual injury after 10 days, 0 to 100 scale, 0 is no effect, 100 is complete control
Summary of the method: as §1

soybean [20] = assay: Test A postemergence; type: in vivo, Glycine max; conditions: postemergence, 10 days
Summary of the method: as §1

corn [21] = assay: Test A preemergence; type: in vivo, Zea mays; conditions: visual injury after 10 days, 0 to 100 scale, 0 is no effect, 100 is complete control
Summary of the method: as §1

soybean [22] = assay: Test A preemergence; type: in vivo, Glycine max; conditions: visual injury after 10 days, 0 to 100 scale, 0 is no effect, 100 is complete control
Summary of the method: as §1

[23] = 1000 g ai/ha, 0 to 100 scale (0 no effect, 100 complete control), 10 days
[24] = 1000 g ai/ha, Postemergence, 0 to 100 scale
[25] = 125 g ai/ha, visual injury after 10 days, 0 to 100 scale, 0 is no effect, 100 is complete control
[26] = 500 g ai/ha, visual injury after 10 days, 0 to 100 scale, 0 is no effect, 100 is complete control
[27] = 125 g ai/ha, postemergence, 10 days, 0 to 100 scale, 0 no effect, 100 complete control
[28] = 500 g ai/ha, postemergence, 10 days, visual injury, 0 to 100 scale (0 no effect, 100 complete control)
[29] = 125 g ai/ha, 0 to 100 scale, 0 no effect, 100 complete control
[30] = 500 g ai/ha, visual injury, 0 to 100 scale (0 no effect, 100 complete control)

Cc1cccc2c1O[C@@H](C)CN2C(=O)c1cccc(-n2cc(Cl)cn2)c1 [Compound 132]
Plant response rating, Foxtail, Giant (foxtail, giant [1]; [23]): 0 | Plant response rating, Pigweed, Palmer (pigweed, palmer [2]; [23]): 0 | Plant response rating, Barnyardgrass (barnyardgrass [3]; [23]): 10 | Plant response rating, Horseweed (horseweed; [24]): 0 | Plant response rating, Barnyardgrass (barnyardgrass [4]; [24]): 0 | Plant response rating, Galium (galium; [24]): 0 | Plant response rating, Foxtail, Giant (foxtail, giant [5]; [24]): 10 | Plant response rating, Kochia (kochia [6]; [24]): 20 | Plant response rating, Ragweed (ragweed [7]; [24]): 0 | Plant response rating, Blackgrass (blackgrass [8]; [24]): 0 | Plant response rating, Blackgrass (blackgrass [9]; [23]): 0 | Plant response rating, Ragweed (ragweed [10]; [23]): 0 | Plant response rating, Pigweed, Palmer (pigweed, palmer [11]; [24]): 0 | Plant response rating, Ryegrass, Italian (ryegrass, Italian [12]; [24]): 0 | Plant response rating, Ryegrass, Italian (ryegrass, Italian [13]; [23]): 0 | Plant response rating, Kochia (kochia [14]; [23]): 0

Cc1cccc2c1O[C@@H](C)CN2C(=O)c1cccc(-n2cnc(COC(C)C)n2)c1 [Compound 135]
Plant response rating, Foxtail, Giant (foxtail, giant [1]; [25]): 10 | Plant response rating, Foxtail, Giant (foxtail, giant [1]; [26]): 100 | Plant response rating, Pigweed, Palmer (pigweed, palmer [2]; [25]): 10 | Plant response rating, Pigweed, Palmer (pigweed, palmer [2]; [26]): 30 | Plant response rating, Barnyardgrass (barnyardgrass [3]; [25]): 30 | Plant response rating, Barnyardgrass (barnyardgrass [3]; [26]): 70 | Horseweed plant response rating (horseweed; [27]): 0 | Plant response rating, Horseweed (horseweed; [28]): 0 | Barnyardgrass plant response rating (barnyardgrass [4]; [27]): 0 | Plant response rating, Barnyardgrass (barnyardgrass [4]; [28]): 10 | Galium plant response rating (galium; [27]): 50 | Plant response rating, Galium (galium; [28]): 80 | Wheat plant response rating (wheat [15]; [29]): 10 | Plant response rating, Wheat (wheat [15]; [30]): 50 | Plant response rating, Oat, Wild (oat, wild [16]; 125 g ai/ha): 60 | Plant response rating, Oat, Wild (oat, wild [16]; 500 g ai/ha): 90 | Foxtail, Giant plant response rating (foxtail, giant [5]; [27]): 10 | Plant response rating, Foxtail, Giant (foxtail, giant [5]; [28]): 90 | Kochia plant response rating (kochia [6]; [27]): 0 | Plant response rating, Kochia (kochia [6]; [28]): 50 | Corn plant response rating (corn [17]; [29]): 10 | Plant response rating, Corn (corn [17]; [30]): 60 | Ragweed plant response rating (ragweed [7]; [27]): 0 | Plant response rating, Ragweed (ragweed [7]; [28]): 30 | Blackgrass plant response rating (blackgrass [8]; [27]): 0 | Plant response rating, Blackgrass (blackgrass [8]; [28]): 70 | Plant response rating, Blackgrass (blackgrass [9]; [25]): 60 | Plant response rating, Blackgrass (blackgrass [9]; [26]): 80 | Plant response rating, Ragweed (ragweed [10]; [25]): 0 | Plant response rating, Ragweed (ragweed [10]; [26]): 0 | Pigweed, Palmer plant response rating (pigweed, palmer [11]; [27]): 10 | Plant response rating, Pigweed, Palmer (pigweed, palmer [11]; [28]): 20 | Oat, Wild plant response rating (oat, wild [18]; [29]): 0 | Plant response rating, Oat, Wild (oat, wild [18]; [30]): 20 | Plant response rating, Wheat (wheat [19]; 125 g ai/ha): 0 | Plant response rating, Wheat (wheat [19]; 500 g ai/ha): 30 | Ryegrass, Italian plant response rating (ryegrass, Italian [12]; [27]): 0 | Plant response rating, Ryegrass, Italian (ryegrass, Italian [12]; [28]): 50 | Soybean plant response rating (soybean [20]; [29]): 90 | Plant response rating, Soybean (soybean [20]; [30]): 100 | Plant response rating, Corn (corn [21]; 125 g ai/ha): 0 | Plant response rating, Corn (corn [21]; 500 g ai/ha): 10 | Plant response rating, Ryegrass, Italian (ryegrass, Italian [13]; [25]): 60 | Plant response rating, Ryegrass, Italian (ryegrass, Italian [13]; [26]): 90 | Plant response rating, Kochia (kochia [14]; [25]): 0 | Plant response rating, Kochia (kochia [14]; [26]): 0 | Plant response rating, Soybean (soybean [22]; 125 g ai/ha): 20 | Plant response rating, Soybean (soybean [22]; 500 g ai/ha): 30

Reference: patent US20260262643A1, “HERBICIDAL BENZOXAZINES” (FMC CORPORATION, priority 2022, published 2026)
